Experiments:
[1] = system: R3X nonsense mutation of the PCDH15 gene in COS-7 cells; test: Ex vivo readthrough assay, p2luc-R3X dual luciferase reporter plasmid in COS-7 cells; assay type: cell-based, monkey
Procedure: For the, suppression of nonsense mutations by novel compounds was tested ex vivo using a dual luciferase reporter plasmid ex vivo readthrough assay. To generate the p2luc plasmid harboring the R3X nonsense mutation of the PCDH15 gene, the following oligonucleotides: 5′-[…]-3′ (SEQ ID NO: 21) and 5′-[…]-3′ (SEQ ID NO: 22) were annealed to each other and inserted into to polylinker sequence of the p2luc vector. The reporter plasmid p2luc-R3X was transfected to cos-7 cells with Lipofectamine 2000 (Invitrogen) and addition of tested compounds was performed 5 hours post transfection. Luciferase activity was determined after 24 hours of incubation, using the Dual Luciferase Reporter Assay System (Promega) and stop codon readthrough was calculated as described previously.

[2] = system: human cytoplasmic A site olygonucleotide model duplexes; test: UV melting of A site oligonucleotide model duplexes; assay type: binding
Excerpt: FIG. 7 presents the UV melting profiles observed for the human cytoplasmic A site olygonucleotide model duplexes in the absence of any drug (“No Drug” curve in FIG. 7) and in complex with ribostamycin (“Ribostamycin” curve in FIG. 7), Compound 3 (“NB30” curve in FIG. 7) and Compound 37 (“NB54” curve in FIG. 7) complexes at a drug/duplex ratio of 5:1;

TGA stop codon = test: Preliminary tests for in vitro readthrough activity of the TGA stop codon; assay type: biochemical
[3] = Cell toxicity of Compound 37; assay type: cell-based
MDCK (canine kidney) = test: Cell toxicity assay (XTT cell proliferation); assay type: cell-based; conditions: 48 hours
Procedure: (§1) After 1 day the medium was changed to medium without streptomycin and different concentrations of the tested compounds were added. After 48 hours a cell proliferation assay (XTT based colorimetric assay, Biological Industries) was performed, using the 5 hours incubation protocol, according to the manufacturer's instructions. Optical density (OD) was read using an Elisa plate reader. Cell viability was calculated as the ratio between the number of living cells in cultures grown in the presence of the tested compounds, versus the corresponding cell cultures which were grown without the tested compounds.

COS-7 (monkey kidney) = test: Cell toxicity assay (XTT cell proliferation); assay type: cell-based; conditions: 48 hours
Procedure: as §1

[4] = system: HEK-293 (human embryonic kidney); test: Cell toxicity assay (XTT cell proliferation); assay type: cell-based; conditions: 48 hours
Procedure: as §1

[5] = available toxicity data on aminoglycosides; unit inferred; cited from earlier work

Compound: NCC[C@H](O)C(=O)N[C@@H]1CC(N)[C@@H](O[C@H]2OC(CO)[C@@H](O)C(O)C2N)C(O[C@@H]2O[C@H](CN)C(O)C2O)C1O (some centres unmarked) [Compound 37]
- maximum suppression level of the R3X nonsense mutation [1]: 5.25%
- affinity to the cytoplasmic A site versus Compound 3 [2]: greater affinity
- in vitro readthrough activity of the TGA stop codon vs Compound 3 and paromomycin (TGA stop codon): significantly higher stop codon read-through activity
- cell toxicity in comparison to paromomycin and gentamicin [3]: significantly reduced

Compound: gentamicin [reference compound]
- LC50 MDCK (MDCK (canine kidney)): 510 ± 70 µg/mL
- LC50 COS-7 (COS-7 (monkey kidney)): 490 ± 60 µg/mL
- LC50 HEK293 [4]: 700 ± 80 µg/mL

Compound: NC[C@@H]1O[C@H](O[C@H]2[C@@H](O)[C@H](O[C@@H]3[C@@H](O)[C@H](N)C[C@H](N)[C@H]3O[C@H]3O[C@H](CO)[C@@H](O)[C@H](O)[C@H]3N)O[C@@H]2CO)[C@H](N)[C@@H](O)[C@@H]1O [paromomycin, reference compound]
- LD50 [5]: 160 mg/kg

— US20190060340A1, “NOVEL AMINOGLYCOSIDES AND USES THEREOF IN THE TREATMENT OF GENETIC DISORDERS” (Technion Research & Development Foundation Limited, priority 2007, published 2019)
